For one compound, IC50 results are on record in publication PMC9032561, “Simultaneous Inhibitory Effects of All-Trans Astaxanthin on Acetylcholinesterase and Oxidative Stress” (Marine Drugs, 2022).

The experiment has as its target T1, acetylcholinesterase (Electrophorus electricus, UniProt O42275).
T1 construct: gene ache
Nature of the experiment: Ellman assay with Lineweaver-Burk kinetics; supported by fluorescence quenching and circular dichroism. In kind it is biochemical. A general note: DTNB colorimetry detects thiols as they appear.

T1 sequence (O42275 24-633): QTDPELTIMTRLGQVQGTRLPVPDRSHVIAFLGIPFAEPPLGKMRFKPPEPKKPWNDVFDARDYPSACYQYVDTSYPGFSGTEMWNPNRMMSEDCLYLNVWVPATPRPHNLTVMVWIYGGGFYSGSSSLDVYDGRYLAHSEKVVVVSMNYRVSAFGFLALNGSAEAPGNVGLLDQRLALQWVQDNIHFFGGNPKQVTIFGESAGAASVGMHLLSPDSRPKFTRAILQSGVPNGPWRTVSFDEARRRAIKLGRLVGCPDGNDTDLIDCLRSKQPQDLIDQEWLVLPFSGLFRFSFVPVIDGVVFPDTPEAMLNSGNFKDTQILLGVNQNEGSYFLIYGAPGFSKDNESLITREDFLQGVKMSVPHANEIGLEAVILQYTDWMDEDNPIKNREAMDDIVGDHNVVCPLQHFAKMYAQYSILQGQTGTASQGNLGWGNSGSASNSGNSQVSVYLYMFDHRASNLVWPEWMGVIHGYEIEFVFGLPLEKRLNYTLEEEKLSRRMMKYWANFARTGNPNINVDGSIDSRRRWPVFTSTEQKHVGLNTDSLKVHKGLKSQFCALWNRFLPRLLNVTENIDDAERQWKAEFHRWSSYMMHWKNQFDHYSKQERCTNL

Broadly, the IC50 is the concentration needed to halve the response being measured. Higher therefore signals weaker potency. Consider `CC1=C(/C=C/C(C)=C/C=C/C(C)=C/C=C/C=C(C)/C=C/C=C(C)/C=C/C2=C(C)C(=O)[C@@H](O)CC2(C)C)C(C)(C)C[C@H](O)C1=O` [all-trans astaxanthin], for which the half-maximal inhibitory concentration (IC50) is 8.64 µM.
